Results reported in patent EP0416746A2 (priority 1989, dated 1991).
Like-named read-outs stand apart in the source and are kept apart here.

How the values were obtained:
[1] = test system: Phytophthora infestans; type: in vivo; details: active = greater than 50% control of the disease at 125 ppm (w/v) or less; spray or stem base drench; late tomato blight
[2] = test system: Plasmopara viticola; type: in vivo
[3] = test system: Venturia inaequalis; details: in vivo
[4] = test system: Erysiphe graminis; type: in vivo; details: active = greater than 50% control of the disease at 125 ppm (w/v) or less; spray or stem base drench; barley powdery mildew
[5] = test system: Pyricularia oryzae; type: in vivo; details: active = greater than 50% control of the disease at 125 ppm (w/v) or less; spray or stem base drench; rice blast
[6] = test system: Pellicularia sasakii; type: in vivo
[7] = test system: Botrytis cinerea; type: in vivo; details: active = greater than 50% control of the disease at 125 ppm (w/v) or less; spray or stem base drench; grey mould of tomato

SMILES	PI [1]	PV ([2]; in vivo)	VI [3]	PV ([2]; active = greater than 50% control of the disease at 125 ppm (w/v) or less, spray or stem base drench, vine downy mildew)	EG [4]	PO [5]	PS ([6]; active = greater than 50% control of the disease at 125 ppm (w/v) or less, spray or stem base drench, rice sheath blight)	BC [7]	PS ([6]; in vivo)
CO/C=C(/C(=O)OC)c1ccccc1CSC(=O)c1ccccc1 [Compound 1, methyl (E)-2-[2-(benzoylthiomethyl)phenyl]-3-methoxy-2-propenoate]	+ (+ = active)	+ (key: + = active)	+ (key: + = active)	–	–	–	–	–	–
CO/C=C(/C(=O)OC)c1ccccc1CSC(=O)C(C)(C)C [Compound 2]	+ (+ = active)	–	–	+ (+ = active)	+ (+ = active)	+ (+ = active)	+ (+ = active)	+ (+ = active)	–
CO/C=C(/C(=O)OC)c1ccccc1CSC(C)=O [Compound 3, methyl (E)-2-[2-(acetylthiomethyl)phenyl]-3-methoxy-2-propenoate]	–	–	+ (key: + = active)	–	–	–	–	–	+ (key: + = active)
CO/N=C(/C(=O)OC)c1ccccc1CSC(=O)c1ccccc1 [Compound 12, methyl (E)-2-[2-(benzoylthiomethyl)phenyl]-(methoxyimino)acetate]	–	+ (key: + = active)	+ (key: + = active)	–	–	–	–	–	–
